Key:
Format in all cases: cell-based
[1] = test system: Escherichia coli ATCC 25922; assay: MIC, standard microdilution technique
Procedure, shortened: (§1)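 Following NCCLS document M7-A5, compounds are serially diluted in microtiter format against each strain, and the minimal inhibitory concentration is taken as the endpoint.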

[2] = test system: Staphylococcus aureus 1086; assay: MIC, standard microdilution technique
Procedure, shortened: as §1

[3] = test system: Staphylococcus aureus 745; assay: MIC, standard microdilution technique
Procedure, shortened: as §1

[4] = test system: Staphylococcus aureus ATCC 29213; assay: MIC, standard microdilution technique
Procedure, shortened: as §1

[5] = test system: Streptococcus pneumoniae 12288; assay: MIC, standard microdilution technique
Procedure, shortened: as §1

[6] = test system: Streptococcus pneumoniae SL199T; assay: MIC, standard microdilution technique
Procedure, shortened: as §1

[7] = test system: Streptococcus pneumoniae l/l; assay: MIC, standard microdilution technique
Procedure, shortened: as §1

[8] = test system: Streptococcus pneumoniae ¼; assay: MIC, standard microdilution technique
Procedure, shortened: as §1

[9] = test system: Haemophilus influenzae 12214; assay: MIC, standard agar dilution method using HTM medium
Procedure, shortened: (§2)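 Per NCCLS standard M7-A5 (aerobic growers), activity against Haemophilus influenzae is reported as MIC.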

[10] = test system: Haemophilus influenzae B1501; assay: as above
Procedure, shortened: as §2

[11] = test system: Haemophilus influenzae QK12/87; assay: as above
Procedure, shortened: as §2

[12] = test system: Haemophilus influenzae QK50; assay: as above
Procedure, shortened: as §2

Substance	minimum inhibitory concentration (MIC), Strain D [1]	minimum inhibitory concentration (MIC), Strain B [2]	minimum inhibitory concentration (MIC), Strain C [3]	minimum inhibitory concentration (MIC), Strain A [4]	minimum inhibitory concentration (MIC), Strain H [5]	minimum inhibitory concentration (MIC), Strain G [6]	minimum inhibitory concentration (MIC), Strain E [7]	minimum inhibitory concentration (MIC), Strain F [8]	minimum inhibitory concentration (MIC), Strain K [9]	minimum inhibitory concentration (MIC), Strain M [10]	minimum inhibitory concentration (MIC), Strain I [11]	minimum inhibitory concentration (MIC), Strain L [12]
(3R or S, 3aR, 4R or S, 6R, 8R, 9R, 10R, 12S, 15R, 15aS) -3-[[3-[6-Amino-9H-purine-9-yl]propyl]thio]-15-ethyl-12-fluorooctahydro-8-methoxy-4,6,8,10,12,15a-hexamethyl-3-9-[[3,4,6-trideoxy-3-(dimethylamino)-β-D-xylo-hexopyranosyl]oxy]-2H-furo [2,3-c] oxacyclotetradecin-2,5,11,13 (3H,6H,12H)-tetrone [Example 13]	32 µg/mL	<=0.06 μg/ml	>32 µg/mL	<=0.06 μg/ml	0.25 µg/mL	<=0.06 μg/ml	<=0.06 μg/ml	<=0.06 μg/ml	2 µg/mL	2 µg/mL	2 µg/mL	2 µg/mL
(3R or S, 3aS, 4R or S, 6R, 8R, 9R, 10R, 12R, 15R, 15aS) -15-Ethylhexadecahydro-4,6,8,10,12,15a-hexamethyl-2,5,11,13-tetraoxo-8-[[(2E)-3-(3-quinolyl)-2-propen-1-yl]oxy]-9-[[3,4,6-trideoxy-3-(dimethylamino)-β-D-xylo-hexopyranosyl]oxy]-2H-furo [2,3-c] oxacyclotetradecin-3-carbonitrile [Example 15]	>32 µg/mL	<=0.06 μg/ml	32 µg/mL	<=0.06 μg/ml	16 µg/mL	2 µg/mL	<=0.06 μg/ml	0.25 µg/mL	4 µg/mL	2 µg/mL	4 µg/mL	2 µg/mL
